We go through two compounds from patent EP0857483A1, “Substituted aminopyridines in the treatment of glucose metabolism disorders” (ELI LILLY AND COMPANY, priority 1997, dated 1998).

The test system of experiment [1] is I1 receptors over α2 adrenergic receptors. To be noted: bovine RVLM; saturation binding; Ernsberger et al., J. Pharmacol. Exp. Ther., 264, 172-182 (1993); cited from earlier work.
In experiment [2] the test system is Zucker diabetic fatty rat (ZDF-DRT-fa). Kind of experiment: Further study: plasma glucose in ZDF rats with dose reduction and withdrawal of treatment. In kind it is in vivo. The protocol:
(§1) To determine the impact of treatment with the substituted aminopyrimidines of Formula I on the progression of disease 6 week-old ZDF animals were grouped into the following categories, with 5 animals assigned to each group. Group 1 Control (5008 chow ad libitum) Group 2 Moxonidine (10 mg/kg/day) Group 3 Pair fed to correct for decrease in food consumption in 10 mg/kg/day group
(§2) Rats were housed one per plastic cage with bedding and had free access to water and Purina Formulalab 5008 Chow (except pair fed group). Because previous studies had indicated a reduction in food consumption with moxonidine treatment, body weight and food consumption were monitored daily, and a group of control animals was pair fed to moxonidine treated group. Blood samples were collected from the tail vein. Plasma glucose and insulin levels are monitored weekly.
(§3) Plasma glucose was measured by coupled hexokinase method on the IL Monarch System (Instrumentation Laboratory, Lexington, MA). Plasma insulin was determined with radioimmunoassay kit from Diagnostics Products Corporation (San Diego, CA) using rat insulin as a standard.
A further study was carried out as described above, except that moxonidine treatment was reduced to 6.4 mg/kg/day for two days, followed by resumption of moxonidine treatment at 10 mg/kg/day for 13 days, and then stopping moxonidine treatment.

Experiment [3] has the same test system. Kind of experiment: Plasma insulin in 6 week-old prediabetic Zucker diabetic fatty rats. The class given is in vivo. As to conditions: value (SEM). Here is the method:
(§4) The activity of the compounds of the present invention was determined by testing the efficacy in vivo in Zucker diabetic rats.
(§5) The Zucker diabetic fatty rat (ZDF-DRT-fa) is a classic rodent model of diabetes associated with obesity and insulin resistance, with tissue specific defects in insulin sensitivity similar to human patients with type II diabetes mellitus. This animal model at six weeks of age is normoglycemic, but glucose intolerant (Clark JB, Palmer CJ, and Shaw WN: The diabetic Zucker fatty rat, Proceeding of the Society for Experimental Bioloqy and Medicine 173, 68-75, 1983; and Peterson RG, Shaw WN, Neel M, Little LA, Eichburg J: Zucker diabetic fatty rat as a model for non-insulin dependent diabetes mellitus. ILAR News 32:16-19, 1990.) Between seven and eight weeks of age, plasma glucose levels rise as the pancreatic beta cells lose their ability to secrete sufficient insulin to compensate for insulin resistance. In an attempt to maintain plasma glucose in normal range, the pancreas is forced to secrete increasing amount of insulin, resulting in hyperinsulinemia (Bue JM and Shaw WN: ZDF-Drt-fa rat: A new model with marked susceptibility to dietary manipulation. Diabetes 40:865A, 1991). The ZDF rat is usually studied between eight and nine weeks of age when it is hyperglycemic, hyperinsulinemic, and hyperlipemic, in an attempt to halt further decline of pancreatic function. The present study was carried out in six weeks old animals (prediabetic). The purpose of this study was to determine whether moxonidine treatment will prevent or delay onset of diabetes in the six weeks old prediabetic ZDF rat.
as §1, §2, §3
(§6) Plasma glucose and plasma insulin were monitored weekly. The results of these in vivo experiments are set forth below in Tables 1 and 2. The value in parenthesis following the plasma glucose value and plasma insulin value is the standard error of the mean.

The test system is the same in experiment [4]. The experiment is described as follows: Plasma glucose in 6 week-old prediabetic Zucker diabetic fatty rats. In kind it is in vivo. As to conditions: value (SEM). Here is the method:
as §4, §5, §1, §2, §3, §6

As to `Clc1cccc(Cl)c1N=C1NCCN1` [clonidine], in experiment [1], the “selectivity value (Ki at α2 sites in µM/Ki sites in µM)” value is reported as “less than 4”.

Regarding `COc1nc(C)nc(Cl)c1N=C1NCCN1` [Moxonidine, 4-chloro-N-(imidazoline-2-ylidene) -6-methoxy-2-methyl-5-pyrimidineamine], the “Plasma Glucose” value in experiment [2] (Treatment period day 0, mox @ 10 m/k/d) was determined as 141.5333 mg/dL; in experiment [2] (Treatment period day 7, mox @ 10 m/k/d) it was 152.8917 mg/dL; in experiment [2] (Treatment period day 14, mox @ 10 m/k/d) it was 166.2528 mg/dL; in experiment [2] (Treatment period day 21, at this day reduced mox dose to 6.4 m/k/d) it was 172.1556 mg/dL; in experiment [2] (Treatment period day 23, after two days at 6.4 m/k/d, mox @ 10 m/k/d resumed), 254.0889 mg/dL; in experiment [2] (Treatment period day 28, mox @ 10 m/k/d), 251.4833 mg/dL. The “Plasma Glucose” value in experiment [2] (Treatment period day 36, stopped mox treatment) was 242.5944 mg/dL; in experiment [2] (Treatment period day 42, 1 wk after mox is removed), 265.9556 mg/dL; in experiment [2] (Treatment period day 49, 2 wks after mox is removed), 410.425 mg/dL; in experiment [4] (Day 0, 10 mg/kg/day) it was 145.6 (2.4) mg/dl; in experiment [4] (Day 7, 10 mg/kg/day) it was 148.1 (13.8) mg/dl; in experiment [4] (Day 14, 10 mg/kg/day) it was 166.1 (11.2) mg/dl. Besides, the “Plasma Glucose” value is 164.2 (8.0) mg/dl in experiment [4] (Day 21, 10 mg/kg/day); 168.0 (12.6) mg/dl in experiment [4] (Day 28, 10 mg/kg/day); 191.6 (8.2) mg/dl in experiment [4] (Day 35, 10 mg/kg/day); 179.8 (6.1) mg/dl in experiment [4] (Day 42, 10 mg/kg/day); 152.1 (8.7) mg/dl in experiment [4] (Day 49, 10 mg/kg/day); 168.4 (12.6) mg/dl in experiment [4] (Day 63, 10 mg/kg/day). Also, the “Plasma Insulin” value is reported as 10.9 (0.9) ng/ml in experiment [3] (Day 0, 10 mg/kg/day); 9.3 (1.0) ng/ml in experiment [3] (Day 7, 10 mg/kg/day); 12.7 (1.4) ng/ml in experiment [3] (Day 14, 10 mg/kg/day); 17.8 (1.2) ng/ml in experiment [3] (Day 21, 10 mg/kg/day); 23.4 (1.8) ng/ml in experiment [3] (Day 28, 10 mg/kg/day); 24.8 (1.4) ng/ml in experiment [3] (Day 35, 10 mg/kg/day). Further, in experiment [3] (Day 42, 10 mg/kg/day), the “Plasma Insulin” value was 20.6 (0.7) ng/ml.
